Columns and labels:
Puccinia recondita = experiment: Protective activity against Puccinia recondita on wheat (brown rust of wheat); format: in vivo; details: comparison to closest prior art; concentration not given; untreated 90
Protocol: The active compounds were prepared as a stock solution comprising 25 mg of active compound which was made up to 10 ml using a mixture of acetone and/or DMSO and the emulsifier Uniperol® EL (wetting agent having emulsifying and dispersing action based on ethoxylated alkylphenols) in a volume ratio of solvent/emulsifier of 99/1. The mixture was then made up to 100 ml with water. This stock solution was diluted with the solvent/emulsifier/water mixture described to the concentration of active compound stated below. Protective Activity Against Puccinia recondita on Wheat (brown Rust of Wheat) Leaves of potted wheat seedlings of the cultivar “Kanzler” were sprayed to runoff point with an aqueous suspension having the concentration of active compounds stated below. The next day, the treated plants were inoculated with a spore suspension of brown rust of wheat (Puccinia recondite). The plants were then placed in a chamber with high atmospheric humidity (90 to 95%) at 20 to 22° C. for 24 hours. During this time, the spores germinated and the germ tubes penetrated into the leaf tissue. The next day, the test plants were returned to the greenhouse and cultivated at temperatures between 20 and 22° C. and 65 to 70% relative atmospheric humidity for a further 7 days. The extent of the rust fungus development on the leaves was then determined visually.

Row | SMILES | Infection in % (Puccinia recondita) [%] | melting point [°C]
1 | CCCCCc1c(CCC)nc2cc(C)nn2c1N [compound 24, reference compound] | 40 | –
2 | CCCCCCc1c(CCC)nc2cc(C)nn2c1N [I-1] | 20 | 132 to 134

Reference: patent US20080171657A1, “5,6-Dialkyl-7-Aminoazolopyrimidines, Their Preparation and Their Use for Controlling Harmful Fungi, and Compositions Comprising These Compounds” (Basf Aktiengesellschaft, priority 2005, published 2008)
